Read-outs that look alike come from different tables or passages of the source.
Legend:
[1] = tested on: HIV-1 (IIIB); assay: Inhibition of HIV-1 (IIIB)-induced cytopathicity (giant cell formation) in CEM cells; assay type: cell-based
Protocol: (§1) A variety of glycopeptide antibiotic derivatives of vancomycin, eremomycin and teicoplanin including their aglycon derivatives were evaluated for their inhibitory activity against HIV-1 (IIIB) and HIV-2(ROD) in CEM cell cultures.

[2] = tested on: HIV-2(ROD); assay: Inhibition of HIV-2 (ROD)-induced cytopathicity (giant cell formation) in CEM cells; assay type: cell-based; conditions: read-out: EC50 HIV-2 (concentration required to inhibit HIV-induced giant cell formation by 50%); HIV-2, CEM cell cultures
Protocol: as §1

[3] = tested on: HIV-1(HE); assay: Inhibition of HIV-1 (HE)-induced cytopathicity in MOLT4/C8 cells; assay type: cell-based
[4] = tested on: HIV-1 (HE); assay: Inhibition of HIV-1 (HE)-induced cytopathicity in CEM/0 cells; assay type: cell-based
[5] = tested on: HIV-2 (EHO); conditions: read-out: EC50 CEM/0 HIV-2 (EHO); CEM/0 cells
Protocol: (§2) Inhibition of HIV-1 (IIIB, HE, HN) and HIV-2(ROD, EHO, RF)-induced cytopathicity in CEM or C8166 or Molt4/C8 cells was measured in microtiter 96-well plates containing ˜3×10^5 CEM cells/ml, infected with 100 CCID50 of HIV per ml and containing appropriate dilutions of the test compounds. After 4 to 5 days of incubation at 37° C. in a CO2-controlled humidified atmosphere, CEM, C8166 or Molt4/C8 giant (syncytium) cell formation was examined microscopically.

[6] = tested on: HIV-2 (RF); conditions: read-out: EC50 CEM/0 HIV-2 (RF); CEM/0 cells
Protocol: as §2

[7] = tested on: HIV-1 (MN); assay: Inhibition of HIV-1 (MN)-induced cytopathicity in CEM/0 cells; assay type: cell-based
[8] = tested on: mutant HIV-1 strain Lys-103-Asn; assay: Anti-HIV-1 activity against mutant HIV-1 strain Lys-103-Asn in CEM cultures; assay type: cell-based
[9] = tested on: murine leukemia L1210; assay: Cytostatic activity assay, L1210 cells; assay type: cell-based; conditions: read-out: IC50 L1210 (compound concentration required to inhibit tumor cell proliferation by 50%)
[10] = tested on: human lymphocyte Molt4/clone 8; assay: Cytostatic activity assay, Molt4/clone 8 cells; assay type: cell-based; conditions: read-out: IC50 Molt4/C8 (compound concentration required to inhibit tumor cell proliferation by 50%)
[11] = tested on: human lymphocyte CEM; assay: Cytostatic activity assay, CEM cells; assay type: cell-based; conditions: read-out: IC50 CEM (compound concentration required to inhibit tumor cell proliferation by 50%)
[12] = tested on: VZV (wild-type strains); assay: Anti-VZV assay (wild-type strains): virus-induced cytopathicity in HEL cell cultures; assay type: cell-based, varicella-zoster virus; conditions: for EC50: HEL cell cultures
[13] = tested on: HEL cells
[14] = tested on: HEL cells; conditions: read-out: CC50 (HEL)
[15] = tested on: HSV-1 (KOS); assay: Anti-HSV-1 assay: virus-induced cytopathicity in HEL cell cultures
[16] = tested on: HSV-2 (G); assay: Anti-HSV-2 assay: virus-induced cytopathicity in HEL cell cultures
[17] = tested on: mutant HIV-1 strain Tyr-181-Cys; assay: Anti-HIV-1 activity against mutant HIV-1 strain Tyr-181-Cys in CEM cultures; assay type: cell-based
[18] = CEM cultures, wild type in mutant panel, read-out: EC50 HIV-1 IIIB
[19] = CEM/0 cells, read-out: EC50 CEM/0 HIV-1 (IIIB)
[20] = read-out: EC50 HIV-1 (concentration required to inhibit HIV-induced giant cell formation by 50%), HIV-1, CEM cell cultures
[21] = VZV strain OKA, read-out: EC50 VZV (OKA)
[22] = VZV strain YS, read-out: EC50 VZV (YS)
[23] = read-out: EC50 HSV-1 (KOS), HEL cell cultures
[24] = read-out: EC50 HSV-2 (G), HEL cell cultures

Compound: CNC(CC(C)C)C(=O)NC1C(=O)NC(CC(N)=O)C(=O)NC2C(=O)NC3C(=O)NC(C(=O)NC(C(=O)O)c4cc(O)c(CN5CCN(Cc6ccc(-c7ccccc7)cc6)CC5)c(O)c4-c4cc3ccc4O)C(O)c3ccc(cc3)Oc3cc2cc(c3O)Oc2ccc(cc2Cl)C1O (stereo not shown) [Compound 6]
- EC50 [1, 18]: 5.5 ± 0.7 µM
- EC50 [1, 19]: 5.5 ± 0.7 µM
- EC50 [1, 20]: 5.5 ± 0.7 µM
- EC50 [2]: 12 ± 3.5 µM
- EC50 [3]: 22 ± 2.9 µM
- EC50 [4]: 40 µM
- EC50 [5]: 50 µM
- EC50 [6]: 16 ± 5.7 µM
- EC50 [7]: 20 µM
- EC50 [8]: 11 ± 1.4 µM
- IC50 [9]: 250 ± 39 µM
- IC50 [10]: > 500 µM
- IC50 [11]: > 500 µM
- activity against VZV [12]: pronounced activity
- EC50 [12, 21]: 4.2 µM
- MTC (HEL) ([13]; anti-VZV table): ≧20-200 μM
- CC50 ([14]; HEL cells, anti-VZV table): > 50 µM

Compound: CCCCCCCCCC(=O)N1CCN(C(=O)C2NC(=O)C3NC(=O)C(NC(=O)C4NC(=O)C5NC(=O)C(Cc6ccc(c(Cl)c6)Oc6cc4cc(c6O)Oc4ccc(cc4Cl)C3O)NC(=O)C(N)c3ccc(O)c(c3)Oc3cc(O)cc5c3)c3ccc(O)c(c3)-c3c(O)cc(O)cc32)CC1 (stereo not shown) [Compound 40]
- EC50 [1, 20]: 1.5 ± 0.7 µM
- EC50 [2]: 4.5 ± 2.1 µM
- IC50 [9]: 38.7 ± 3.4 µM
- IC50 [10]: 32.3 µM
- IC50 [11]: 44 ± 0.42 µM
- EC50 [12, 21]: 0.29 µM
- EC50 [12, 22]: 0.21 µM
- MTC (HEL) [13]: ≧5-20 μM
- MTC (HEL) ([13]; anti-VZV table): ≧5-20 μM
- CC50 ([14]; HEL cell proliferation): > 50 µM
- CC50 ([14]; HEL cells, anti-VZV table): > 50 µM
- EC50 [15, 23]: 9.6 µM
- EC50 [16, 24]: 9.6 µM

Compound: CCCCc1ccc(CNCC(=O)N2CCN(C(=O)C3NC(=O)C4NC(=O)C(NC(=O)C5NC(=O)C6NC(=O)C(Cc7ccc(c(Cl)c7)Oc7cc5cc(c7O)Oc5ccc(cc5Cl)C4O)NC(=O)C(N)c4ccc(O)c(c4)Oc4cc(O)cc6c4)c4ccc(O)c(c4)-c4c(O)cc(O)cc43)CC2)cc1 (stereo not shown) [Compound 46]
- EC50 [1, 18]: 4 µM
- EC50 [1, 19]: 4 µM
- EC50 [1, 20]: 4 µM
- EC50 [2]: 7 ± 4.2 µM
- EC50 [3]: 6.5 ± 4.3 µM
- EC50 [4]: 35 ± 7.1 µM
- EC50 [5]: 35 ± 7.1 µM
- EC50 [6]: 10 µM
- EC50 [7]: 9 ± 1.4 µM
- EC50 [8]: 17 ± 4.2 µM
- EC50 [17]: 8 µM
- IC50 [9]: > 100 µM
- IC50 [10]: > 100 µM
- IC50 [11]: > 100 µM
- EC50 [12, 21]: 0.81 µM
- MTC (HEL) ([13]; anti-VZV table): 20 to 80 µM
- CC50 ([14]; HEL cells, anti-VZV table): > 50 µM

Compound: CC(C)CC(C(=O)NC1C(=O)NC(CC(N)=O)C(=O)NC2C(=O)NC3C(=O)NC(C(=O)NC(C(=O)O)c4cc(O)c(CN5CCN(Cc6ccc(-c7ccccc7)cc6)CC5)c(O)c4-c4cc3ccc4O)C(O)c3ccc(cc3)Oc3cc2cc(c3O)Oc2ccc(cc2Cl)C1O)N(C)C(=O)OC(C)(C)C (stereo not shown) [Compound 98]
- activity against VZV [12]: pronounced activity
- EC50 [12, 21]: 2.3 µM
- EC50 [12, 22]: 1.3 µM
- MTC (HEL) [13]: ≧20-200 μM
- MTC (HEL) ([13]; anti-VZV table): ≧20-200 μM
- CC50 ([14]; HEL cell proliferation): > 50 µM
- CC50 ([14]; HEL cells, anti-VZV table): > 50 µM
- EC50 ([15]; read-out: EC50 HSV-1): 24 µM
- EC50 ([16]; read-out: EC50 HSV-2): 24 µM

Compound: CN(Cc1ccc(Cl)cc1)Cc1c(O)cc2c(c1O)-c1cc(ccc1O)C1NC(=O)C3NC(=O)C4NC(=O)C(Cc5ccc(c(Cl)c5)Oc5cc3cc(c5O)Oc3ccc(cc3Cl)C(O)C(NC1=O)C(=O)NC2C(=O)O)NC(=O)C(N)c1ccc(O)c(c1)Oc1cc(O)cc4c1 (stereo not shown) [Compound 115]
- EC50 [12, 21]: > 5 µM
- EC50 [12, 22]: 8.9 µM
- MTC (HEL) [13]: ≧20-200 μM
- MTC (HEL) ([13]; anti-VZV table): ≧20-200 μM
- CC50 ([14]; HEL cell proliferation): 50 µM
- CC50 ([14]; HEL cells, anti-VZV table): 50 µM
- EC50 [15, 23]: 80 µM
- EC50 [16, 24]: > 16 µM
